Entries after “also recorded” stand apart in the source; their conditions may differ.
Tests used:
[1] = tested on: Long-Evans rats; assay: Corneal damage with 1 N NaOH in rats: weekly follow-up of corneal haze and epithelial closure (photographs, ImageJ); type: in vivo, rat; settings: for chemical lesions induced after corneal damage with 1N NaOH: after treatment, different experimentation groups; for corneal haze, significance treated at the fifth week vs. treated at day 0 / epithelial closure, significance treated at the fifth week vs. treated at day 0: fifth week vs day 0; for corneal haze, significance control vs. peptide / epithelial closure, significance control vs. peptide: Student's t-test; for corneal haze / epithelial closure: treated eye vs control eye, topical eye drops, fifth formulation, 1 N NaOH damage; for epithelial closure: fluorescein
Text: In this study, domestic hens (Gallus gallus domesticus) aged between 12 and 16 months were initially used as experimental animals but due to the difficulty of the model, especially in relation to obtaining and handling the animals, it was decided to use Long-Evans rats. Furthermore, it was bibliographically verified that these animals are used for in vivo models for studying corneal fibrosis because they allow to follow the evolution of the damage with more precision since they are pigmented rats and, like humans, have a Bowman's membrane.
Male Long-Evans rats aged 10 weeks were used, divided into 5 groups: • Group 1: 12 rats, 6 treated with dexamethasone and 6 treated with mitomycin C. • Group 2: 12 rats, 6 treated with p17 of the first formulation (see section 1.1.2.b) and 6 treated with p144 of the first formulation (see section 1.1.2.b). • Group 3: 12 rats, 6 treated with p17 of the second formulation (see section 1.1.2.b) and 6 treated with p144 of the second formulation (see section 1.1.2.b). • Group 4: 12 rats, 6 treated with p17 of the third formulation (see section 1.1.2.b) and 6 treated with p144 of the third formulation (see section 1.1.2.b). • Group 5: 12 rats, 6 treated with p17 of the fourth formulation (see section 1.1.2.b) and 6 treated with p144 of the fourth formulation (see section 1.1.2.b). • Group 6: 12 rats, 6 treated with p17 of the fifth formulation (see section 1.1.2.b) and 6 treated with p144 of the fifth formulation (see section 1.1.2.b).
To perform the damage in the cornea, the animals were anesthetized with isoflurane and a 5 mm Whatman paper disc impregnated in 1 N NaOH for 30 seconds was applied to them in the central part of the eye. After the damage, they were washed with abundant physiological saline serum and an antibiotic ointment was applied to them to prevent possible infections in the affected area.
After conducting several in vivo studies with the previously described groups of animals, it could be concluded that the chemical damage occurring after the application of NaOH for 30 seconds caused an excessive lesion for the study which was to be conducted, therefore, it was decided to conduct new experiments reducing the time to 15 seconds.
It was randomly established that the left eye of each animal would act as a control and that the right eye would be the treated eye, such that the same animals acts as a control in addition to being treated. It must be pointed out that all the animals received antibiotic treatment in both eyes daily only during the first week of the study for the purposes of avoiding microbial keratitis.
Starting from 0.15% sodium hyaluronate (Hyabak 10 mL, Thea) without preservatives: • p144: 20 mg were dissolved in 5 ml of eye drops, […] of saturated concentrated NaOH were incorporated, stirring and adding in portions of 5 μl. It was sonicated until solubilization. To adjust the pH, 500 μl of 1M HEPES (4-(2-hydroxyethyl)-1-piperazineethanesulfonic acid) were added, such that the pH changed from 10.5 to 7 • p144 control: 40 μl of saturated NaOH and 500 μl of 1 M HEPES (final concentration of HEPES 50 mM) • p17: 20 mg were dissolved in 5 ml of the eye drops, it was sonicated until complete solubilization and it was incorporated to the vial with a 10 ml syringe and a blue needle to perforate the filter of the contained (final concentration 2 mg/ml) • p17 control: non-manipulated eye drops • Note: The formulations were maintained at 4° C. throughout the study.
Therefore, all the results shown in relation to in vivo will refer to this type of treatment.
The administration of the treatment was initiated twenty-four hours after the damage. After that time a follow-up of the damage was performed, which consisted of taking photographs at days 0, 7, 14, 21, 28 and 35. To take the photographs the animals were anesthetized with isoflurane. Photographs were taken of both the control eye (left) and of the treated eye (right) with and without fluorescein. […]

[2] = tested on: Smad 7; assay: Western Blot against Smad7 in rabbit corneal fibroblasts treated with TGF-β; type: cell-based; settings: primary culture; peptide 50 and 200 μg/ml
Procedure: (§1) Therefore, Western Blot and immunofluorescence studies were conducted to determine, from cells extracted from the in vivo studies, the signaling pathway used by the peptides administered topically. It should be emphasized that said studies were conducted on fibroblasts from rabbit cornea and not from rat cornea. This decision was made due to the difficulty entailed in isolating fibroblasts from rodent eyes.
(§2) Since the scientific literature repeatedly describes the TGF-β1 signaling pathways, the decision was made to go into depth in such pathways by means of the techniques described in the methodology section. Said pathways involve the study of the Smad protein family, specifically the study of the isoforms Smad2, 2/3 and 7.
(§3) To that end, protein extracts obtained from the primary culture of rabbit fibroblasts were treated with TGF-β1 at concentrations of 0, 3 and 5 ng/ml and, 50 and 200 μg/ml of peptide p17 and p144.

[3] = tested on: p-Smad2; assay: Western Blot against p-Smad2 in TGF-β1-treated primary culture of rabbit corneal fibroblasts; type: cell-based; settings: for inhibition of the expression of p-Smad2: TGF-β1 treated
Procedure: as §1, §2, §3

[4] = tested on: Smad 2/3; assay: Western Blot against Smad2/3 in rabbit corneal fibroblasts; type: cell-based; settings: primary culture; peptide 50 and 200 μg/ml
Procedure: as §1, §2, §3

[5] = tested on: p-Smad2; assay: Immunofluorescence for p-Smad2 on rabbit corneal fibroblasts; type: cell-based; settings: TGF-β1 treated fibroblasts
Procedure: as §1

## CO[C@@]12[C@H](COC(N)=O)C3=C(C(=O)C(C)=C(N)C3=O)N1C[C@@H]1N[C@@H]12 [mitomycin C, reference compound]
[1]; first experiment, Group 1
  clinical efficacy of drugs usually used in the treatment of corneal fibrosis: correspond to those described in the scientific literature

## KRIWFIPRSSWYERA (TGF-beta 1 inhibitor peptide) [p17]
[1]
  chemical lesions induced after corneal damage with 1N NaOH: decreases significantly
  corneal haze, significance treated at the fifth week vs. treated at day 0: highly significant
  epithelial closure, significance treated at the fifth week vs. treated at day 0: highly significant
  corneal haze: clear decrease; also recorded: significantly reversed
  epithelial closure: clear decrease; also recorded: significantly reversed
[1]; fifth week
  corneal haze, significance control vs. peptide: highly significant
  epithelial closure, significance control vs. peptide: very significant
[2]
  expression of Smad 7: not modified
[3]; primary culture of rabbit corneal fibroblasts, Smad2, Smad2/3, Smad7
  effect on the signaling cascade of TGF-β1: does not have any effect
[4]
  expression of Smad 2/3: not affected; also recorded: not modified
[5]
  translocation of p-Smad2 to the nucleus: did not inhibit

## TSLDASIIWAMMQN (TGF-beta 1 inhibitor peptide) [p144]
[1]
  chemical lesions induced after corneal damage with 1N NaOH: decreases significantly
  corneal haze, significance treated at the fifth week vs. treated at day 0: highly significant
  epithelial closure, significance treated at the fifth week vs. treated at day 0: highly significant
  corneal haze: clear decrease; also recorded: significantly reversed
  epithelial closure: clear decrease; also recorded: significantly reversed
[1]; fifth week
  corneal haze, significance control vs. peptide: highly significant
  epithelial closure, significance control vs. peptide: highly significant
[1]; fourth week
  epithelial closure, significance control vs. peptide: significant
[1]; second and fourth week
  corneal haze, significance control vs. peptide: significant
[2]
  expression of Smad 7: not modified
[3]; peptide 50 μg/ml
  inhibition of the expression of p-Smad2: slight inhibition; also recorded: inhibiting the phosphorylation of Smad2
[3]; peptide 200 μg/ml
  inhibition of the expression of p-Smad2: reaching the values of the controls; also recorded: inhibiting the phosphorylation of Smad2
[4]
  expression of Smad 2/3: not affected; also recorded: not modified
[5]
  translocation of p-Smad2 to the nucleus: inhibited

From patent US20120315256A1, “USE OF TRANSFORMING GROWTH FACTOR - BETA 1 (TGF-B1) INHIBITOR PEPTIDES FOR THE TREATMENT OF CORNEAL FIBROSIS AND/OR HAZE” (DIGNA BIOTECH, S.I., priority 2010, published 2012)
